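Results reflect a 48-hour exposure of cells in 96-well plates to compound at five concentrations. At the GI50, growth is halved.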 Active and inactive are the calls of the source. No stated cut-off is given here; in the data, active = GI50 up to about 1.1 µM and inactive = higher.
Experiments:
Assay in all cases: NCI tumour cell line growth inhibition, 48 h
UACC-257 = system: UACC-257
HOP-62 = system: HOP-62
A498 = system: A498
NCI-H226 = system: NCI-H226
786-0 = system: 786-0
NCI-H522 = system: NCI-H522
DMS-114 = system: DMS-114
SF-295 = system: SF-295
ACHN = system: ACHN
U-251 = system: U-251
SNB-78 = system: SNB-78
SK-OV-3 = system: SK-OV-3
DMS-273 = system: DMS-273
SK-MEL-28 = system: SK-MEL-28
SF-539 = system: SF-539
OVCAR-3 = system: OVCAR-3
COLO 205 = system: COLO 205
EKVX = system: EKVX

Measured: GI50

Clc1ccc(OCc2nnc3n2N=C(c2ccccc2)CS3)c(Cl)c1
inactive: UACC-257 56.2 µM | HOP-62 > 10 µM | A498 2.24 µM | NCI-H226 9.84 µM | 786-0 9.48 µM | NCI-H522 3.81 µM | DMS-114 > 100 µM | SF-295 4.35 µM | ACHN 29 µM | U-251 4.81 µM | SNB-78 9.42 µM | SK-OV-3 > 100 µM | DMS-273 5.56 µM | SK-MEL-28 > 100 µM | SF-539 12.6 µM | OVCAR-3 > 10 µM

CC(=O)C1=NN(c2ccccc2)C2(S1)SC(c1ccccc1)(c1ccccc1)c1ccccc12 (configuration not stated)
inactive: UACC-257 34.4 µM | HOP-62 34.6 µM | A498 89.7 µM | NCI-H226 16.1 µM | 786-0 34.5 µM | NCI-H522 22.9 µM | COLO 205 > 100 µM | DMS-114 32.5 µM | SF-295 26.9 µM | ACHN 42.3 µM | EKVX > 100 µM | U-251 44.7 µM | SNB-78 30.8 µM | SK-OV-3 30.8 µM | DMS-273 17.6 µM | SK-MEL-28 > 100 µM | SF-539 60.8 µM | OVCAR-3 51.3 µM

C#C[C@@H](CCCC)OC(=O)N[C@H](C)c1ccccc1
inactive: UACC-257 44.8 µM | HOP-62 > 100 µM | NCI-H226 22.5 µM | 786-0 59.6 µM | NCI-H522 1.74 µM | COLO 205 2.45 µM | DMS-114 25.1 µM | SF-295 77.1 µM | ACHN 43.8 µM | EKVX 60.7 µM | U-251 37.4 µM | SNB-78 94.6 µM | SK-OV-3 > 100 µM | DMS-273 37.2 µM | SK-MEL-28 > 100 µM | SF-539 2.16 µM | OVCAR-3 35.4 µM

CCCCCCCCCCCC(=O)OCCOCCOCCOCCOCCOCc1ccccc1
inactive: UACC-257 > 100 µM | HOP-62 > 100 µM | A498 > 100 µM | NCI-H226 > 100 µM | 786-0 > 100 µM | NCI-H522 > 100 µM | COLO 205 > 100 µM | DMS-114 > 100 µM | SF-295 > 100 µM | ACHN > 100 µM | EKVX > 100 µM | U-251 > 100 µM | SNB-78 > 100 µM | SK-OV-3 > 100 µM | DMS-273 > 100 µM | SK-MEL-28 > 100 µM | OVCAR-3 > 100 µM

Cc1nnc2c3nnc(C)n3c3ccccc3n12
inactive: UACC-257 > 100 µM | HOP-62 > 100 µM | A498 > 100 µM | NCI-H226 > 100 µM | 786-0 > 100 µM | NCI-H522 > 100 µM | COLO 205 > 100 µM | DMS-114 > 100 µM | SF-295 > 100 µM | ACHN > 100 µM | EKVX > 100 µM | U-251 > 100 µM | SNB-78 > 100 µM | SK-OV-3 > 100 µM | DMS-273 > 100 µM | SK-MEL-28 > 100 µM | SF-539 > 100 µM | OVCAR-3 > 100 µM

COc1c(C)n(CCO)ccc1=O
inactive: UACC-257 > 100 µM | HOP-62 > 100 µM | A498 > 100 µM | NCI-H226 > 100 µM | 786-0 > 100 µM | NCI-H522 > 100 µM | COLO 205 > 100 µM | DMS-114 > 100 µM | SF-295 > 100 µM | ACHN > 100 µM | EKVX > 100 µM | U-251 > 100 µM | SNB-78 > 100 µM | SK-OV-3 > 100 µM | DMS-273 > 100 µM | SK-MEL-28 > 100 µM | OVCAR-3 > 100 µM

COc1ccc(N2C(=O)C3c4[nH]c5ccccc5c4C4CC(C)(C)CC(C)(C)C4C3C2=O)cc1 (configuration not stated)
inactive: UACC-257 19.4 µM | HOP-62 16.7 µM | A498 14.5 µM | NCI-H226 14 µM | 786-0 12.9 µM | NCI-H522 17.2 µM | COLO 205 8.81 µM | DMS-114 27.2 µM | SF-295 8.05 µM | ACHN 14.9 µM | EKVX 15.9 µM | U-251 16.8 µM | SNB-78 21.4 µM | SK-OV-3 17.3 µM | DMS-273 11 µM | SK-MEL-28 14.1 µM | SF-539 12.6 µM

Cc1ccc(NC(=O)CCCC(=O)CC(=O)c2ccc(Br)cc2)cc1
inactive: UACC-257 > 100 µM | HOP-62 > 100 µM | A498 > 100 µM | NCI-H226 > 100 µM | 786-0 > 100 µM | NCI-H522 > 100 µM | COLO 205 > 100 µM | DMS-114 > 100 µM | SF-295 > 100 µM | ACHN > 100 µM | EKVX > 100 µM | U-251 > 100 µM | SNB-78 > 100 µM | SK-OV-3 > 100 µM | DMS-273 > 100 µM | SK-MEL-28 > 100 µM | SF-539 > 100 µM | OVCAR-3 > 100 µM

C=CCc1ccc(Oc2cc(CC=C)c3c(c2O)O[C@@H](CO)[C@H]3c2ccc(O)c(-c3cc(CC=C)ccc3O)c2)cc1
inactive: UACC-257 > 100 µM | HOP-62 55.7 µM | A498 80 µM | NCI-H226 67.1 µM | 786-0 54 µM | NCI-H522 18.3 µM | COLO 205 52 µM | DMS-114 22.5 µM | SF-295 67.1 µM | ACHN 67 µM | EKVX 46.7 µM | U-251 23.1 µM | SNB-78 52 µM | SK-OV-3 > 100 µM | DMS-273 42.9 µM | SK-MEL-28 25.8 µM | SF-539 40.9 µM | OVCAR-3 33 µM

CCCCCCCCCCCCCC(=O)OCC(C[As](=O)(O)O)OC(=O)CCCCCCCCCCCCC (configuration not stated)
inactive: UACC-257 > 100 µM | HOP-62 > 100 µM | A498 > 100 µM | NCI-H226 > 100 µM | 786-0 > 100 µM | NCI-H522 > 100 µM | DMS-114 74 µM | ACHN > 100 µM | EKVX > 100 µM | U-251 43.9 µM | SNB-78 > 100 µM | SK-OV-3 > 100 µM | DMS-273 > 100 µM | SK-MEL-28 > 100 µM | SF-539 > 100 µM | OVCAR-3 > 100 µM

Brc1ccc(C[P+]2(c3ccccc3)CCCCC2)cc1.[O-][Cl+3]([O-])([O-])[O-]
inactive: UACC-257 23.9 µM | HOP-62 > 100 µM | A498 > 100 µM | NCI-H226 > 100 µM | 786-0 > 100 µM | NCI-H522 19 µM | COLO 205 20.5 µM | DMS-114 39.5 µM | SF-295 > 100 µM | ACHN > 100 µM | EKVX > 100 µM | U-251 29.6 µM | SNB-78 25.2 µM | SK-OV-3 > 100 µM | DMS-273 37.7 µM | SK-MEL-28 63.7 µM | SF-539 82.4 µM | OVCAR-3 43.6 µM

N#CCCN(c1ccc(/C=N/c2ccc(C(=O)O)cc2)cc1)S(=O)(=O)c1ccccc1
inactive: UACC-257 > 100 µM | HOP-62 > 100 µM | A498 > 100 µM | NCI-H226 > 100 µM | 786-0 > 100 µM | NCI-H522 > 100 µM | COLO 205 > 100 µM | DMS-114 > 100 µM | SF-295 > 100 µM | ACHN > 100 µM | EKVX > 100 µM | U-251 > 100 µM | SNB-78 > 100 µM | SK-OV-3 > 100 µM | DMS-273 > 100 µM | SK-MEL-28 > 100 µM | SF-539 > 100 µM | OVCAR-3 > 100 µM

CCOC(=O)/N=c1/nc(N(C)C)ss1
inactive: UACC-257 > 100 µM | HOP-62 > 100 µM | A498 > 100 µM | NCI-H226 30.3 µM | 786-0 > 100 µM | NCI-H522 > 100 µM | DMS-114 > 100 µM | SF-295 > 100 µM | ACHN > 100 µM | EKVX > 100 µM | U-251 > 100 µM | SNB-78 > 100 µM | SK-OV-3 > 100 µM | DMS-273 > 100 µM | SK-MEL-28 > 100 µM | SF-539 > 100 µM

O=C1C=C(Nc2cc(Cl)ccc2Cl)c2ccccc2C1=O
inactive: UACC-257 24 µM | HOP-62 26.1 µM | A498 26.6 µM | NCI-H226 23.9 µM | 786-0 34.8 µM | COLO 205 36.1 µM | DMS-114 25.5 µM | SF-295 25.1 µM | ACHN 26.1 µM | EKVX > 100 µM | U-251 25.2 µM | SNB-78 > 100 µM | SK-OV-3 51.6 µM | DMS-273 21.3 µM | SK-MEL-28 38.6 µM | SF-539 33.3 µM | OVCAR-3 23 µM

O=C1C=C(Nc2ccc(Cl)cc2Cl)c2ccccc2C1=O
inactive: UACC-257 35 µM | HOP-62 30.5 µM | A498 > 100 µM | NCI-H226 28.5 µM | 786-0 78.5 µM | NCI-H522 29.8 µM | COLO 205 > 100 µM | DMS-114 23.6 µM | SF-295 53.5 µM | ACHN 36.2 µM | EKVX > 100 µM | U-251 29.4 µM | SNB-78 44.1 µM | SK-OV-3 99.1 µM | DMS-273 27.4 µM | SK-MEL-28 59.8 µM | SF-539 > 100 µM | OVCAR-3 28.4 µM

CC(C)C(=O)NC(=S)Nc1ccc([N+](=O)[O-])cc1C#N
inactive: UACC-257 > 100 µM | HOP-62 > 100 µM | A498 > 100 µM | NCI-H226 25.1 µM | 786-0 > 100 µM | NCI-H522 > 100 µM | COLO 205 16.8 µM | DMS-114 > 100 µM | SF-295 > 100 µM | ACHN > 100 µM | EKVX 63.8 µM | U-251 > 100 µM | SNB-78 > 100 µM | SK-OV-3 > 100 µM | DMS-273 > 100 µM | SK-MEL-28 > 100 µM | SF-539 > 100 µM | OVCAR-3 > 100 µM

— ChEMBL document CHEMBL1201862, “PubChem BioAssay data set” (2004)
